The source of these data is patent publication US12589085B2, “Use of diaminoguanidine derivative and feed composition thereof in preparation of veterinary drug” (priority 2019, dated 2026).

Read-outs that look alike come from different tables or passages of the source.

The test system of series [1] is bone marrow cells of mice. Conditions: cyclophosphamide 40 mg/kg intraperitoneal, n = 5. Here is the method:
Experimental animals: 60 clean and healthy ICR mice have the average weight of 18-20 g, half female and half male, purchased from the Comparative Medicine Center of Yangzhou University. […]
Specimen preparation: 6 hours after the second administration of the test article, […] and 5 […] in each group were sacrificed by cervical dislocation. […] The fixed smear is stained with Giemsa application solution for 15-30 min, rinsed with distilled water, dried, and gets ready for inspection.
The film was read by double-blind method, the number of polychromatic red blood cells (PCE) of each mouse was recorded in each group, including the number of micronucleus PCE cells, and the number of mature red blood cells (RBC), and the like. The number of polychromatic red blood cells (PCE) was calculated, including the number of micronucleus PCE cells and the number of mature red blood cells (RBC) in each test group of male and female mice respectively, and the results were listed.
The experimental data is processed by SPSS 11.0 statistical software, and the analysis result is expressed as x±SD, and the incidence of micronucleus is statistically processed according to the X^2 test (α=0.05).

Series [2] has as its system sperm. Conditions: cyclophosphamide 40 mg/kg once a day 5 days. Here is the method: Experimental animals: 60 clean-grade healthy male ICR mice having the average weight of 18-20 g, purchased from the Comparative Medicine Center of Yangzhou University.
Reagents: Test agent, Compound 2, provided by Guangzhou Insighter Biotechnology Co., Ltd., was prepared into a suspension of the required concentration with 1.0% sodium carboxymethyl cellulose before use; the mutagenic positive control article of cyclophosphamide with the content of 99.00%; other reagents include sodium chloride, methanol, and eosin, all of analytical grade; self-prepared physiological saline; self-prepared eosin aqueous solution (2%).
The test article, Compound 2 was diluted with 1.0% sodium carboxymethyl cellulose as a solvent, and it was given by oral in different concentrations and the same volume. There is also a positive control and a negative (solvent) control. The cyclophosphamide was selected as the positive control (40 mg/kg).
Grouping of experimental animals: 60 healthy male mice were individually weighed, labeled and numbered, and they were divided into 5 groups with 12 mice in each group using a completely random method. It was ensured that 10 animals in each group survive for sampling and film making after administration.
Administration: The administration method is carried out according to GB15193.7-2003. The test group, the negative control and the positive control are all given the test article by oral once a day for 5 consecutive days. The weight of the mouse for each administration was weighed, and the volume of the test article that each mouse should administer was calculated according to the requirements of the mouse 0.2 mL/10 g b.w.
Sampling and sample preparation: The mice were sacrificed by cervical dislocation on the Day 35 after the first administration, and sampling and film making were performed. 10 mice were sampled in each dose group. The abdominal cavity was cut, the epididymis on both sides were separated and extracted, and put in a petri dish containing 2 mL of normal saline; The mice were longitudinally cut with ophthalmological scissors for 2 times, the normal saline in it was pipetted with a straw for several times, and let stand for 3 min; the tissue fragments were filtered with a 4-layer of lens cleaning paper, 1 drop of the filtrate was drawn onto the glass slide, the slide was pushed with 4 slides per mouse; the slide in the air dried naturally, and fixed with methanol for 10 minutes, and dried; stained with 2% eosin for 1 h, the dye solution was gently washed off with water, and it was dried naturally before microscopic examination.
Data collation and analysis: The number of normal sperm, the number of abnormal sperm and the number of various types of abnormal sperm were read and counted in each dose group of mice. The sperm abnormality rate (%) of mice in each dose group and the percentage (%) of various types of abnormal sperm were calculated, and the standard deviation of the sperm abnormality rate of mice was also calculated in each dose group. Calculation as follows:
The sperm abnormality rate of mice in each dose group was statistically compared with the sperm abnormality rate of mice in the negative (solvent) control. The experimental data was processed by SPSS 11.0 statistical software, and the analysis results were expressed as x±SD, and the incidence of sperm abnormalities was statistically processed according to the X^2 (α=0.05).
If the dose of the test group has caused the animal to die, while the sperm abnormality has not increased, the result can be judged to be negative.

For `O=P1(N(CCCl)CCCl)NCCCO1` (stereo not drawn) [Positive control, cyclophosphamide, reference compound], the “PCE micronucleus rate” value in series [1] (female mice) is reported as 15.00 ± 2.42 ‰. Moreover, the PCE micronucleus rate in series [1] (male mice) is recorded as 15.20 ± 2.37 ‰. Also, in series [2] (Day 35, 10000 sperm), the “Total number of abnormal sperm” value turned out to be 559, the “abnormal sperm: Amorphous” value turned out to be 248, the “abnormal sperm: Banana shape” value is 91 and the “abnormal sperm: Double head” value was 13. For the same compound, in series [2] (Day 35, 10000 sperm), the “abnormal sperm: Double tail” value amounted to 25, the “abnormal sperm: Fat head” value is 21, the “abnormal sperm: Fold tail” value came out at 12 and the “abnormal sperm: No hook” value is 149. Further, in series [2] (Day 35, n = 10), the “Number of Abnormal sperm (x ± SD)” value is 55.90 and the Sperm deformity came to 5.26 ± 0.18%.
